From patent publication US20110092488A1, “Quninoline Methanol Compounds for the Treatment and Prevention of Parasitic Infections” (priority 2005, published 2011)
≈ marks a conversion by molar mass, not a printed value.

Tests used:
P. falciparum W2 = test: In vitro antimalarial activity against P. falciparum W2; assay type: cell-based, Plasmodium falciparum
Protocol: The in vitro activities of AAQMs against P. falciparum strains W2, D6, TM91C235 and TM90C2A were evaluated using the method of Desjardins et al. as modified by Milhous et al. W2 is chloroquine resistant and mefloquine sensitive, D6 is chloroquine sensitive but naturally less susceptible to mefloquine, TM91C235 is resistant to mefloquine, chloroquine and pyrimethamine as is TM90C2A, however this latter parasite is a two pfmdr1 copy strain. We routinely run mefloquine in this screen as a control to ensure assay validity.

[1] = Aotus, 10 mg/kg/day oral x7
[2] = test system: Balb/c 3T3 mouse fibroblast cells; test: 3T3 neutral red uptake (NRU) phototoxicity test; assay type: cell-based
Excerpt: A pharmacophore for phototoxicity was developed to be used as an in silico screening tool to determine the minimum phototoxic concentration for a number of AAQMS (WR069878 and those indicated in Table 5). Minimum phototoxic concentration in a yeast assay for a number of AAQMS, as per Ison et al.; Phototoxicity of Quinoline methanols and other drugs in mice and yeast; J. Invest. Dermatol. (52)193-198 (1969) were used to generate a three-dimensional pharmacophore model using the HypoGen algorithm of the […]® (Accelrys software Inc.) methodology as per Bhattacharjee et al.; A 3D QSAR pharmacophore model and quantum chemical structure—activity analysis of chloroquine(CQ)-resistance reversal; J. Chem Inf. Comput Sci. (42) 1212-1220 (2002), and Dow et al.; as discussed in Antimicrob Agents Chemother. (48)2624-2632 (2004), cited above, both Bhattacharjee et al. and Dow et al, incorporated herein, by reference. The structures of clinically used quinoline methanols were mapped onto the pharmacophores and estimated values for minimum phototoxic concentration were generated. The 3T3 neutral red uptake (NRU) phototoxicity test, conducted by MB Research Laboratories (Spinnerstown, Pa.), was used to identify quinoline methanols (WR069878 and those in Table 5) that have the potential to exert in vivo phototoxicity after systemic application. Briefly, the central 60 wells of two 96-well plates per AAQM were seeded with Balb/c 3T3 mouse fibroblast cells and maintained in culture for 24 hrs. These plates were then pre-incubated with a range of eight different concentrations of test compound (six wells per concentration) for one hour. Next, one plate was treated with a UVA dose of 5 J/cm2 by irradiating for 50 min at 1.7 mW/cm2, whereas the other plate remained non-treated and in the dark. Next, the treatment medium was replaced with culture medium and cell viability was determined after 24 hrs by measuring neutral red uptake for 3 hrs. Finally, the 3T3 NRU Phototox Prediction Software (version 2.0, ZEBET) was used to calculate EC50 values and Photo-Irritant Factors (PIF) for each compound. […]

IC90 against W2 (P. falciparum W2): 0.49 ng/mL (≈ 1.07 nM) | Mean peak concentration [1]: 65 ng/mL | Plasma conc on day 1 (ng/ml) 2 h ([1]; day 1, 2 h): 38 ng/mL | Plasma conc on day 1 (ng/ml) 24 h ([1]; day 1, 24 h): 16 ng/mL | Plasma conc. on day 7 (ng/ml) 2 h ([1]; day 7, 2 h): 91 ng/mL | Plasma conc. on day 7 (ng/ml) 24 h ([1]; day 7, 24 h): 40 ng/mL
Structure (SMILES): CCCCN(CCCC)CC(O)c1cc(-c2ccc(Cl)cc2)nc2cc(Cl)c(C)cc12 (stereo not shown) [WR069878]
Photo Irritant Factor (PIF) [2]: > 100
